What was measured:
Type in all cases: cell-based
human normal fibroblasts [1] = assay: Promotion of collagen biosynthesis (procollagen type-I C-peptide, PICP, in supernatant); conditions: 10 ppm, 48 hours, control group 125
Protocol: In order to examine the effect on the promotion of collagen biosynthesis that reduces wrinkles and enhances skin elasticity, human normal fibroblasts were seeded into a 96-well microplate at a density of 1×10^4 cells/well, and incubated in DMEM (Dulbecco's Modified Eagle's Medium) medium for 24 hours. After incubation, the medium was replaced with serum-free DMEM media containing 10 ppm of each of dehydroabietic acid (Comparative Example 1), compound K (Comparative Example 2), and a mixture of dehydroabietic acid and compound K (weight ratio of 1:7; Example 1) and then the cells were further incubated for 48 hours. At 24 hours before completion of the incubation, 10 μM ascorbic acid as the positive control was added to each well to promote collagen synthesis. After completion, each well was washed, and the medium was replaced with serum-free DMEM medium, after which the cells were further incubated for 24 hours. After incubation, the supernatant of each well was collected, and the amount of procollagen type-I C-peptide (PICP) in the supernatant was measured using a kit (Takara, Kyoto, Japan) to determine the amount of newly synthesized collagen.

human normal fibroblasts [2] = assay: Skin cell proliferation (MTT assay); conditions: 10 ppm, 24 hours; for Cell proliferation effect (%): relative to control group (equation 1); for Absorbance (570 nm): MTT, serum-free DMEM, control group 0.355
Protocol: In order to examine the effect on skin cell proliferation that reduces wrinkles and enhances skin elasticity, human normal fibroblasts were seeded into a 96-well microplate at a density of 1×10^4 cells/well, and incubated in DMEM (Dulbecco's Modified Eagle's Medium) medium for 24 hours. After incubation, the medium was replaced with serum-free DMEM media containing 10 ppm of each of dehydroabietic acid (Comparative Example 1), compound K (Comparative Example 2), and a mixture of dehydroabietic acid and compound K (weight ratio of 1:7; Example 1), and then the cells were further incubated for 24 hours. Then, 10 μl of 3-(4,5-dimethylthiazol-2-yl)-2,5-diphenyl tetrazolium (MTT, 5 mg/ml) was added to each well, which was then allowed to stand for 4 hours, followed by removal of the medium. Then, 100 μl of dimethyl sulfoxide solution was added to each well, and the absorbance at 570 nm was measured with a microplate reader. Based on the experiment results, the cell proliferation effect was calculated using the following equation 1. [formula]

human normal fibroblasts [3] = assay: Inhibition of lipofuscin accumulation in skin cells (lipofuscin fluorescence); conditions: for Absorbance (570 nm): 10 ppm, after 10 passages of subculture, excitation 360 nm, emission 570 nm, control group 0.650; for inhibition at 10 ppm: Homo sapiens, Fibroblast, after 10 passages, relative to control group (equation 2), read-out: Lipofusin accumulation inhibition rate (%)
Protocol: In order to examine the effect on the inhibition of lipofuscin accumulation that prevents aging, human normal fibroblasts were seeded into a 96-well microplate at a density of 1×10^4 cells/well, and incubated in DMEM (Dulbecco's Modified Eagle's Medium) medium for 24 hours. After incubation, the medium was replaced with serum-free DMEM media containing 10 ppm of each of dehydroabietic acid (Comparative Example 1), compound K (Comparative Example 2), and a mixture of dehydroabietic acid and compound K (weight ratio of 1:7; Example 1). Then, the cells were subcultured in a fresh medium every 48 hours. After 10 passages of subculture, the fluorescence of the self-luminescent protein lipofuscin in the cells was measured using a microplate reader with the excitation wavelength of 360 nm and the emission wavelength of 570 nm. Based on the experiment results, the effect on inhibition of lipofuscin accumulation was calculated using the following equation 2. [formula]

SMILES | Amount of collagen synthesized (human normal fibroblasts [1]) [ng/2 × 10^4] | Cell proliferation effect (%) (human normal fibroblasts [2]) | Absorbance (570 nm) (human normal fibroblasts [2]) | Absorbance (570 nm) (human normal fibroblasts [3]) | inhibition at 10 ppm (human normal fibroblasts [3]) [%]
O=C1O[C@H]([C@@H](O)CO)C(O)=C1O [Ascorbic acid, ascorbic acid] | 186 |  |  |  | 
CC(C)c1ccc2c(c1)CC[C@H]1[C@](C)(C(=O)O)CCC[C@]21C [Comparative Example 1, dehydroabietic acid] | 174 | 53.8 | 0.546 | 0.465 | 28.5
CC(C)=CCC[C@](C)(O[C@@H]1O[C@H](CO)[C@@H](O)[C@H](O)[C@H]1O)[C@H]1CC[C@]2(C)[C@@H]1[C@H](O)C[C@@H]1[C@@]3(C)CC[C@H](O)C(C)(C)[C@@H]3CC[C@]12C [Comparative Example 2, compound K] | 162 | 46.5 | 0.520 | 0.448 | 31.1

Source: patent US20190192413A1, “SKIN ANTI-AGING COMPOSITION CONTAINING DEHYDROGENATED ABIETIC ACID AND COMPOUND K” (AMOREPACIFIC CORPORATION, priority 2016, published 2019)
